Laboratory results taken from article PMC4368200, “Triclabendazole Sulfoxide Causes Stage-Dependent Embryolethality in Zebrafish and Mouse In Vitro” (PLoS ONE, 2015).
Entries after “also recorded” stand apart in the source; their conditions may differ. Read-outs that look alike come from different tables or passages of the source. Marks after values point to notes of the source that are not given here.

What was measured:
[1] = humans, cited from earlier work
[2] = design: method as in PMID 3824395; conditions: 200mg/kg dose; cited from earlier work
[3] = Plasma Cmax in humans after therapeutical TCBZ dose (literature); format: in vivo; conditions: 10 mg/kg
zebrafish embryos = test: Zebrafish embryo test (ZFET); format: in vivo, Danio rerio; conditions: for Dysmorphogenic embryos / Morphological score: 50 hpf
Experimental: The day before the test, adult male and female zebrafish were transferred (1:1) to breeding tanks (Aquaneering, San Diego, California). Artificial plants and marbles were used as spawning substrate. Spawning and fertilization took place within 30 min after the onset of light in the morning. Eggs were collected and extensively cleaned with ISO-standard 7346 water diluted 1:5 using deionized water. Fertilized eggs were selected under a dissection stereomicroscope (Motic SMZ168, Motic China group, LTD., China). The eggs presenting overt anomalies like asymmetries, formation of vesicles or damaged membranes were discarded.
Exposure and evaluation of eggs was performed as described before with slight variations. At 2 hours post-fertilization (hpf) fertilized eggs were selected and transferred to 6-well plates (Greiner Bio-one, Germany). Ten embryos were randomly distributed into wells and filled with 5 mL of freshly prepared test solutions. TCBZ, TCBZSO, ABZ and ABZSO were dissolved in DMSO and subsequently diluted in 0.3x Danieau’s buffer to a final DMSO concentration of 0.05% (v/v). Embryos were incubated at 26 ± 1°C with a dark-light cycle of 10–14 h for 48 h. Embryolethality was determined at 8 hpf on the basis of egg coagulation, at 26 hpf by the absence of tail detachment or somites formation, and at 50 hpf by the absence of heartbeat. Developmental and teratogenic effects were assessed at 50 hpf by the total morphological score described in [32].
The working concentrations for ZFET experiments were 0.1 μM, 0.5 μM, 1 μM, 2.5 μM and 5 μM for TCBZ studies and 0.5 μM, 1 μM, 2.5 μM, 5 μM, 10 μM and 50 μM for TCBZSO. The experiments with ABZ were performed including concentrations of 0.025 μM, 0.05 μM, 0.1 μM, 0.3 μM and 0.5 μM and for ABZSO they included 1 μM, 6 μM, 12 μM, 25 μM and 50 μM.

[4] = design: method as in PMID 21337234; conditions: cows, 12 mg/kg dose; calculated from ref 39; read-out: TCBZSO Cmax; cited from earlier work
[5] = design: method as in PMID 20128898; conditions: sheep, TCBZ 10 mg/kg; calculated from ref 41; read-out: TCBZSO Cmax; cited from earlier work
[6] = design: method as in PMID 7905812; conditions: rabbits, single 10 mg/kg TCBZ dose; transformed to μM from ref 40; read-out: TCBZSO maximum plasma concentration (Cmax); cited from earlier work

CSc1nc2cc(Cl)c(Oc3cccc(Cl)c3Cl)cc2[nH]1 [TCBZ, 5-chloro-6-(2,3-dichlorophenoxy)-2-(methylthio)benzimidazole]
Cmax ([1]; therapeutical dose of 10 mg/kg TCBZ, reviewed by 22, read-out: TCBZ Cmax in plasma): 1.16 µM | Teratogenicity in vivo [2]: not teratogenic at a 200mg/kg dose [23] | Plasma concentration, times lower than triclabendazole sulfoxide [3]: approximately 30 times | Frequency of dysmorphogenesis: Developmental delay (zebrafish embryos; 0.1 µM): 6.7% | Frequency of dysmorphogenesis: Flexion (zebrafish embryos; 0.1 µM): 3.3% | Frequency of dysmorphogenesis: Head-body pigmentation (zebrafish embryos; 0.1 µM): 6.7% | Lethality (zebrafish embryos; 0.1 μM, 2-50 hpf): 0% | Dysmorphogenic embryos (zebrafish embryos; 0.1 μM): 6.7% | Morphological score (zebrafish embryos; 0.1 μM): 34.8 ± 1.8 | Frequency of dysmorphogenesis: Cardiac oedema (zebrafish embryos; 0.5 µM): 13.3% | Lethality (zebrafish embryos; 0.5 μM, 2-50 hpf): 0% | Dysmorphogenic embryos (zebrafish embryos; 0.5 μM): 13.3% | Morphological score (zebrafish embryos; 0.5 μM): 34.8 ± 0.0 | Adverse effects in zebrafish embryos (zebrafish embryos; 1 μM): did not present any adverse effects | Frequency of dysmorphogenesis: Brain necrosis (zebrafish embryos; 1 μM): 10% | Frequency of dysmorphogenesis: Cardiac oedema (zebrafish embryos; 1 μM): 10% | Frequency of dysmorphogenesis: Flexion (zebrafish embryos; 1 μM): 6.7% | Lethality (zebrafish embryos; 1 μM, 2-50 hpf): 0% | Dysmorphogenic embryos (zebrafish embryos; 1 μM): 13.3% | Morphological score (zebrafish embryos; 1 μM): 35.8 ± 0.4 | Frequency of dysmorphogenesis: Developmental delay (zebrafish embryos; 2.5 µM): 50% | Frequency of dysmorphogenesis: Flexion (zebrafish embryos; 2.5 µM): 20% | Frequency of dysmorphogenesis: Head-body pigmentation (zebrafish embryos; 2.5 µM): 50% | Lethality (zebrafish embryos; 2.5 μM, 2-50 hpf): 0% | Dysmorphogenic embryos (zebrafish embryos; 2.5 μM): 60 ^* % | Morphological score (zebrafish embryos; 2.5 μM): 33.0 ± 3.4 | Lethality (zebrafish embryos; 5 μM, 2-50 hpf): 100 ^* % | ZFET LOAEC dysmorphogenesis (zebrafish embryos; 2-50 hpf): 2.5 µM | ZFET LOAEC embryonic differentiation (total morphological score) (zebrafish embryos; 2-50 hpf): 2.5 μM | ZFET LOAEC lethality (zebrafish embryos; 2-50 hpf): 5 µM

C[S+]([O-])c1nc2cc(Oc3cccc(Cl)c3Cl)c(Cl)cc2[nH]1 (centres unmarked) [TCBZSO, Triclabendazole sulfoxide]
Cmax ([1]; 10 mg/kg TCBZ, depending on concomitant food intake, reviewed by 22, 10 mg/kg, read-out: TCBZSO Cmax in plasma): 38.6 µM | Cmax ([1]; 10 mg/kg TCBZ, calculated from ref 43, read-out: TCBZSO Cmax in plasma): 26.6 µM | Cmax [4]: 71.3 µM | Cmax [5]: 37.3 µM | Cmax [6]: 33 µM | Lethality (zebrafish embryos; 0.5 μM, 2-50 hpf): 17% | Dysmorphogenic embryos (zebrafish embryos; 0.5 μM): 0% | Morphological score (zebrafish embryos; 0.5 μM): 36.0 ± 0.0 | Lethality (zebrafish embryos; 1 μM, 2-50 hpf): 10% | Dysmorphogenic embryos (zebrafish embryos; 1 μM): 0% | Morphological score (zebrafish embryos; 1 μM): 36.0 ± 0.0 | Lethality (zebrafish embryos; 2.5 μM, 2-50 hpf): 20% | Dysmorphogenic embryos (zebrafish embryos; 2.5 μM): 0% | Morphological score (zebrafish embryos; 2.5 μM): 36.0 ± 0.0 | Lethality (zebrafish embryos; 5 μM, 2-50 hpf): 7% | Dysmorphogenic embryos (zebrafish embryos; 5 μM): 0% | Morphological score (zebrafish embryos; 5 μM): 36.0 ± 0.0 | Lethality (zebrafish embryos; 10 μM, 2-50 hpf): 35 ^* % | Dysmorphogenic embryos (zebrafish embryos; 10 μM): 0% | Morphological score (zebrafish embryos; 10 μM): 36.0 ± 0.0 | Lethality (zebrafish embryos; 50 μM, 2-50 hpf): 100 ^* % | ZFET LOAEC dysmorphogenesis (zebrafish embryos; 2-50 hpf): No dysmorphogenesis were observed; also recorded: not dysmorphogenic | ZFET LOAEC lethality (zebrafish embryos; 2-50 hpf): 10 µM | ZFET NOAEC (zebrafish embryos; 2-50 hpf): 5 µM | Embryolethal concentration, times lower than ABZSO concentrations killing the embryos (zebrafish embryos; ZFET): five | Embryolethal concentration, times lower than ABZSO concentrations producing malformations (zebrafish embryos; ZFET): 2.5 times
